Key:
BpSDR = target: T1, BpSDR (Paraburkholderia phymatum, UniProt B2JGP2); test: X-ray crystal structure, […] Å; details: co-crystallised with 4 mM NAD, pH 4.5-4.6, 14 °C; cofactor-binding domain; acetate from crystallisation solution in substrate site
T1 construct: gene Bphy_1038; residues 1-289, noncleavable N-terminal His6 tag (MAHHHHHHM-ORF), vector pBG1861, E. coli BL21(DE3); SEC monomer or dimer, prototypical SDR dimers by crystal symmetry

[1] = target: the molecule itself; test: crystal structure; space group C222(1), 1.80 A, three monomers in the asymmetric unit, with NAD and acetate; dimers generated by crystallographic symmetry

Molecule: NC(=O)c1ccc[n+]([C@@H]2O[C@H](COP(=O)(O)OP(=O)(O)OC[C@H]3O[C@@H](n4cnc5c(N)ncnc54)[C@H](O)[C@@H]3O)[C@@H](O)[C@H]2O)c1 [NAD]
- X-ray crystal structure, 1.80 Å (BpSDR): each monomer having an acetate molecule in the substrate-binding domain and a NAD molecule

B1: short-chain dehydrogenase/reductase from Burkholderia phymatum (enzyme)
chain: MFEFDGKVAVITGAGSGFGRAFAEKGASLGMKLVLADVDEGALARTVDTLRAAGAEVIGVRTDVSNGAQVQALADAALEAFGKVHLLFNNAGVGAGGFLWESSANDWAWVFGVNVMGVAHGVRVFAPIMLGQNEAAHIVNTASVAGLLSPPSMGIYNASKHAVVSLTETLYHDLRNAGGEVGCSLLCPAFVPTGIADAERVRPEALRNEAQPTRSQLAADRQLQRAVRSGKLGATDVATLTFEAIAERRFYILTHPAILATVRLRHEDIELQRNPTDPLSLKPEVKEAR
notes: short-chain dehydrogenase/reductase, Burkholderia phymatum STM815, UniProt B2JGP2, amino acids 1-289; Crystallised with 4 mM NAD; each monomer holds NAD and an acetate; 278 residues of each monomer are seen in the structure; also called BpSDR; SDR from B. phymatum; source: E. coli BL21(DE3), purified (IMAC, SEC); not shown: His6 (MAHHHHHH, noncleavable hexahistidine fusion tag from the vector …)
- binding result [1]: binds

Reference: PMC8805215, “Crystal structure of a short-chain dehydrogenase/reductase from Burkholderia phymatum in complex with NAD” (Acta Crystallographica. Section F, Structural Biology …, 2022)
